# From the supplement of paper PMC5303821, “Major sulfonate transporter Soa1 in Saccharomyces cerevisiae and considerable substrate diversity in its fungal family” (Nature Communications, 2017)
# Tests used:
# [1] = tested on: Metarhizium robertsii_XP_007822519; assay: maximal growth rate with compound as sole sulfur source (OD600 per h); higher = better growth / uptake of the sulfur source; conditions: S. cerevisiae S288C/BY sul1Δ sul2Δ soa1Δ with transporter ortholog inserted at SOA1 locus, sulfur-free B medium, 4% glucose, pH 6.5, sole sulfur source
# Method: (§1)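 S. cerevisiae sul1Δ sul2Δ soa1Δ strains expressing 20 fungal SOA1 orthologs (or no transporter, 'soa1 del') were grown in liquid sulfur-free B medium, 4% glucose, pH 6.5 (7 mM K2HPO4). The strains were sulfur-starved for 3 days beforehand. Each sulfur compound was the sole sulfur source at 200 µM (sulfate also at 40 mM). OD600 curves of duplicate cultures were averaged and fitted (logistic / Richards, GroFit) to give maximal growth rate, maximal density and lag phase; temperature not stated.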
# [2] = tested on: Ogataea parapolymorpha_XP_013936897; assay: as above; conditions: S. cerevisiae S288C/BY sul1Δ sul2Δ soa1Δ with transporter ortholog inserted at SOA1 locus, sulfur-free B medium, 4% glucose, pH 6.5, sole sulfur source
# Method: as §1
# [3] = tested on: Fusarium oxysporum_ENH65823; assay: as above; conditions: S. cerevisiae S288C/BY sul1Δ sul2Δ soa1Δ with transporter ortholog inserted at SOA1 locus, sulfur-free B medium, 4% glucose, pH 6.5, sole sulfur source
# Method: as §1
# [4] = tested on: Aspergillus nidulans_CBF74694; assay: as above; conditions: S. cerevisiae S288C/BY sul1Δ sul2Δ soa1Δ with transporter ortholog inserted at SOA1 locus, sulfur-free B medium, 4% glucose, pH 6.5, sole sulfur source
# Method: as §1
# [5] = tested on: Saccharomyces cerevisiae_SOA1; assay: as above; conditions: S. cerevisiae S288C/BY sul1Δ sul2Δ soa1Δ with transporter ortholog inserted at SOA1 locus, sulfur-free B medium, 4% glucose, pH 6.5, sole sulfur source
# Method: as §1
# [6] = tested on: Aspergillus nidulans_XP_661711; assay: as above; conditions: S. cerevisiae S288C/BY sul1Δ sul2Δ soa1Δ with transporter ortholog inserted at SOA1 locus, sulfur-free B medium, 4% glucose, pH 6.5, sole sulfur source
# Method: as §1
# [7] = tested on: Aspergillus nidulans_XP_660563; assay: as above; conditions: S. cerevisiae S288C/BY sul1Δ sul2Δ soa1Δ with transporter ortholog inserted at SOA1 locus, sulfur-free B medium, 4% glucose, pH 6.5, sole sulfur source
# Method: as §1
# [8] = tested on: Saccharomyces eubayanus_SOA2; assay: as above; conditions: S. cerevisiae S288C/BY sul1Δ sul2Δ soa1Δ with transporter ortholog inserted at SOA1 locus, sulfur-free B medium, 4% glucose, pH 6.5, sole sulfur source
# Method: as §1
# [9] = tested on: Aspergillus nidulans_XP_660670; assay: as above; conditions: S. cerevisiae S288C/BY sul1Δ sul2Δ soa1Δ with transporter ortholog inserted at SOA1 locus, sulfur-free B medium, 4% glucose, pH 6.5, sole sulfur source
# Method: as §1
# [10] = tested on: Saccharomyces eubayanus_SOA1; assay: as above; conditions: S. cerevisiae S288C/BY sul1Δ sul2Δ soa1Δ with transporter ortholog inserted at SOA1 locus, sulfur-free B medium, 4% glucose, pH 6.5, sole sulfur source
# Method: as §1
# [11] = tested on: Aspergillus nidulans_CBF80346; assay: as above; conditions: S. cerevisiae S288C/BY sul1Δ sul2Δ soa1Δ with transporter ortholog inserted at SOA1 locus, sulfur-free B medium, 4% glucose, pH 6.5, sole sulfur source
# Method: as §1
# [12] = tested on: Metarhizium robertsii_XP_007821441; assay: as above; conditions: S. cerevisiae S288C/BY sul1Δ sul2Δ soa1Δ with transporter ortholog inserted at SOA1 locus, sulfur-free B medium, 4% glucose, pH 6.5, sole sulfur source
# Method: as §1
# [13] = tested on: Aspergillus nidulans_XP_681611; assay: as above; conditions: S. cerevisiae S288C/BY sul1Δ sul2Δ soa1Δ with transporter ortholog inserted at SOA1 locus, sulfur-free B medium, 4% glucose, pH 6.5, sole sulfur source
# Method: as §1
# [14] = tested on: soa1 del; assay: as above; conditions: S. cerevisiae S288C/BY sul1Δ sul2Δ soa1Δ with transporter ortholog inserted at SOA1 locus, sulfur-free B medium, 4% glucose, pH 6.5, sole sulfur source
# Method: as §1
# [15] = tested on: Ogataea parapolymorpha_XP_013932458; assay: as above; conditions: S. cerevisiae S288C/BY sul1Δ sul2Δ soa1Δ with transporter ortholog inserted at SOA1 locus, sulfur-free B medium, 4% glucose, pH 6.5, sole sulfur source
# Method: as §1
# [16] = tested on: Metarhizium robertsii_XP_007823832; assay: as above; conditions: S. cerevisiae S288C/BY sul1Δ sul2Δ soa1Δ with transporter ortholog inserted at SOA1 locus, sulfur-free B medium, 4% glucose, pH 6.5, sole sulfur source
# Method: as §1
# [17] = tested on: Aspergillus nidulans (IAM 2006)_astA; assay: as above; conditions: S. cerevisiae S288C/BY sul1Δ sul2Δ soa1Δ with transporter ortholog inserted at SOA1 locus, sulfur-free B medium, 4% glucose, pH 6.5, sole sulfur source
# Method: as §1
# [18] = tested on: Saccharomyces uvarum_SOA2; assay: as above; conditions: S. cerevisiae S288C/BY sul1Δ sul2Δ soa1Δ with transporter ortholog inserted at SOA1 locus, sulfur-free B medium, 4% glucose, pH 6.5, sole sulfur source
# Method: as §1
# [19] = tested on: Ogataea parapolymorpha_XP_013935289; assay: as above; conditions: S. cerevisiae S288C/BY sul1Δ sul2Δ soa1Δ with transporter ortholog inserted at SOA1 locus, sulfur-free B medium, 4% glucose, pH 6.5, sole sulfur source
# Method: as §1
# [20] = tested on: Aspergillus nidulans_XP_661733; assay: as above; conditions: S. cerevisiae S288C/BY sul1Δ sul2Δ soa1Δ with transporter ortholog inserted at SOA1 locus, sulfur-free B medium, 4% glucose, pH 6.5, sole sulfur source
# Method: as §1
# [21] = tested on: Saccharomyces uvarum_SOA1; assay: as above; conditions: S. cerevisiae S288C/BY sul1Δ sul2Δ soa1Δ with transporter ortholog inserted at SOA1 locus, sulfur-free B medium, 4% glucose, pH 6.5, sole sulfur source
# Method: as §1
# [22] = tested on: Metarhizium robertsii_XP_007822519; assay: maximal culture density with compound as sole sulfur source (OD600); higher = better growth; conditions: S. cerevisiae S288C/BY sul1Δ sul2Δ soa1Δ with transporter ortholog inserted at SOA1 locus, sulfur-free B medium, 4% glucose, pH 6.5, sole sulfur source
# Method: as §1
# [23] = tested on: Saccharomyces cerevisiae_SOA1; assay: as above; conditions: S. cerevisiae S288C/BY sul1Δ sul2Δ soa1Δ with transporter ortholog inserted at SOA1 locus, sulfur-free B medium, 4% glucose, pH 6.5, sole sulfur source
# Method: as §1
# [24] = tested on: Aspergillus nidulans_XP_661711; assay: as above; conditions: S. cerevisiae S288C/BY sul1Δ sul2Δ soa1Δ with transporter ortholog inserted at SOA1 locus, sulfur-free B medium, 4% glucose, pH 6.5, sole sulfur source
# Method: as §1
# [25] = tested on: Aspergillus nidulans (IAM 2006)_astA; assay: as above; conditions: S. cerevisiae S288C/BY sul1Δ sul2Δ soa1Δ with transporter ortholog inserted at SOA1 locus, sulfur-free B medium, 4% glucose, pH 6.5, sole sulfur source
# Method: as §1
# [26] = tested on: Saccharomyces uvarum_SOA2; assay: as above; conditions: S. cerevisiae S288C/BY sul1Δ sul2Δ soa1Δ with transporter ortholog inserted at SOA1 locus, sulfur-free B medium, 4% glucose, pH 6.5, sole sulfur source
# Method: as §1
# [27] = tested on: Ogataea parapolymorpha_XP_013935289; assay: as above; conditions: S. cerevisiae S288C/BY sul1Δ sul2Δ soa1Δ with transporter ortholog inserted at SOA1 locus, sulfur-free B medium, 4% glucose, pH 6.5, sole sulfur source
# Method: as §1
# [28] = tested on: Aspergillus nidulans_XP_661733; assay: as above; conditions: S. cerevisiae S288C/BY sul1Δ sul2Δ soa1Δ with transporter ortholog inserted at SOA1 locus, sulfur-free B medium, 4% glucose, pH 6.5, sole sulfur source
# Method: as §1
# [29] = tested on: Saccharomyces uvarum_SOA1; assay: as above; conditions: S. cerevisiae S288C/BY sul1Δ sul2Δ soa1Δ with transporter ortholog inserted at SOA1 locus, sulfur-free B medium, 4% glucose, pH 6.5, sole sulfur source
# Method: as §1
# [30] = tested on: Saccharomyces cerevisiae_SOA1; assay: lag phase before growth; higher = slower start of growth; conditions: S. cerevisiae S288C/BY sul1Δ sul2Δ soa1Δ with transporter ortholog inserted at SOA1 locus, sulfur-free B medium, 4% glucose, pH 6.5, sole sulfur source
# Method: as §1
# [31] = tested on: Saccharomyces eubayanus_SOA1; assay: as above; conditions: S. cerevisiae S288C/BY sul1Δ sul2Δ soa1Δ with transporter ortholog inserted at SOA1 locus, sulfur-free B medium, 4% glucose, pH 6.5, sole sulfur source
# Method: as §1
# [32] = tested on: Saccharomyces uvarum_SOA2; assay: as above; conditions: sulfur source concentration 200 µM; S. cerevisiae S288C/BY sul1Δ sul2Δ soa1Δ with transporter ortholog inserted at SOA1 locus; sulfur-free B medium, 4% glucose, pH 6.5, sole sulfur source
# Method: as §1
# [33] = tested on: Ogataea parapolymorpha_XP_013935289; assay: as above; conditions: S. cerevisiae S288C/BY sul1Δ sul2Δ soa1Δ with transporter ortholog inserted at SOA1 locus, sulfur-free B medium, 4% glucose, pH 6.5, sole sulfur source
# Method: as §1
# [34] = tested on: Saccharomyces uvarum_SOA1; assay: as above; conditions: S. cerevisiae S288C/BY sul1Δ sul2Δ soa1Δ with transporter ortholog inserted at SOA1 locus, sulfur-free B medium, 4% glucose, pH 6.5, sole sulfur source
# Method: as §1
# [35] = sulfur source concentration 200 µM
# [36] = sulfur source concentration 40000 µM
smiles,measurement,setting,value
CCCCS(=O)(=O)O [Butanesulfonate],maximal growth rate,[1]; [35],0.00366
same,maximal growth rate,[2]; [35],0.0049
same,maximal growth rate,[3]; [35],0.00349
same,maximal growth rate,[4]; [35],0.00269
same,maximal growth rate,[5]; [35],0.0882
same,maximal growth rate,[6]; [35],0.00392
same,maximal growth rate,[7]; [35],0.00657
same,maximal growth rate,[8]; [35],0.0837
same,maximal growth rate,[9]; [35],0.00393
same,maximal growth rate,[10]; [35],0.0734
same,maximal growth rate,[11]; [35],0.00447
same,maximal growth rate,[12]; [35],0.00375
same,maximal growth rate,[13]; [35],0.00666
same,maximal growth rate,[14]; [35],0.00398
same,maximal growth rate,[15]; [35],0.00411
same,maximal growth rate,[16]; [35],0.0152
same,maximal growth rate,[17]; [35],0.0185
same,maximal growth rate,[18]; [35],0.0878
same,maximal growth rate,[19]; [35],0.087
same,maximal growth rate,[20]; [35],0.00595
same,maximal growth rate,[21]; [35],0.0795
same,maximal culture density,[22]; [35],0.261
same,maximal culture density,[23]; [35],1.58
same,maximal culture density,[24]; [35],0.267
same,maximal culture density,[25]; [35],0.596
same,maximal culture density,[26]; [35],1.71
same,maximal culture density,[27]; [35],1.6
same,maximal culture density,[28]; [35],0.279
same,maximal culture density,[29]; [35],1.59
same,lag phase before growth,[30]; [35],9.34 h
same,lag phase before growth,[31]; [35],9.71 h
same,lag phase before growth,[32],12.7 h
same,lag phase before growth,[33]; [35],6.98 h
same,lag phase before growth,[34]; [35],8.4 h
O=S(=O)(O)O [sulfate],maximal growth rate,[1]; [35],0.00347
same,maximal growth rate,[1]; [36],0.00386
same,maximal growth rate,[2]; [35],0.00477
same,maximal growth rate,[2]; [36],0.00462
same,maximal growth rate,[3]; [35],0.00376
same,maximal growth rate,[3]; [36],0.0142
same,maximal growth rate,[4]; [35],0.00273
same,maximal growth rate,[4]; [36],0.00346
same,maximal growth rate,[5]; [35],0.00588
same,maximal growth rate,[5]; [36],0.123
same,maximal growth rate,[6]; [35],0.00398
same,maximal growth rate,[6]; [36],0.00545
same,maximal growth rate,[7]; [35],0.00621
same,maximal growth rate,[7]; [36],0.00638
same,maximal growth rate,[8]; [35],0.00313
same,maximal growth rate,[8]; [36],0.00349
same,maximal growth rate,[9]; [35],0.00401
same,maximal growth rate,[9]; [36],0.00492
same,maximal growth rate,[10]; [35],0.00395
same,maximal growth rate,[10]; [36],0.0997
same,maximal growth rate,[11]; [35],0.00472
same,maximal growth rate,[11]; [36],0.00348
same,maximal growth rate,[12]; [35],0.00309
same,maximal growth rate,[12]; [36],0.00378
same,maximal growth rate,[13]; [35],0.00615
same,maximal growth rate,[13]; [36],0.0061
same,maximal growth rate,[14]; [35],0.00368
same,maximal growth rate,[14]; [36],0.0039
same,maximal growth rate,[15]; [35],0.00477
same,maximal growth rate,[15]; [36],0.00353
same,maximal growth rate,[16]; [35],0.0813
same,maximal growth rate,[16]; [36],0.088
same,maximal growth rate,[17]; [35],0.0953
same,maximal growth rate,[17]; [36],0.102
same,maximal growth rate,[18]; [35],0.00324
same,maximal growth rate,[18]; [36],0.00336
same,maximal growth rate,[19]; [35],0.0777
same,maximal growth rate,[19]; [36],0.124
same,maximal growth rate,[20]; [35],0.00457
same,maximal growth rate,[20]; [36],0.0588
same,maximal growth rate,[21]; [35],0.0032
same,maximal growth rate,[21]; [36],0.0989
same,maximal culture density,[22]; [35],0.186
same,maximal culture density,[22]; [36],0.213
same,maximal culture density,[23]; [35],0.274
same,maximal culture density,[23]; [36],1.71
same,maximal culture density,[24]; [35],0.224
same,maximal culture density,[24]; [36],0.382
same,maximal culture density,[25]; [35],1.6
same,maximal culture density,[25]; [36],1.68
same,maximal culture density,[26]; [35],0.199
same,maximal culture density,[26]; [36],0.212
same,maximal culture density,[27]; [35],1.58
same,maximal culture density,[27]; [36],1.65
same,maximal culture density,[28]; [35],0.264
same,maximal culture density,[28]; [36],1.57
same,maximal culture density,[29]; [35],0.265
same,maximal culture density,[29]; [36],1.65
same,lag phase before growth,[30]; [36],13.8 h
same,lag phase before growth,[31]; [36],16.8 h
same,lag phase before growth,[33]; [35],25.8 h
same,lag phase before growth,[33]; [36],7.95 h
same,lag phase before growth,[34]; [36],10.7 h
